Target: T1, OaIseP (isethionate-specific TRAP substrate-binding protein IseP) (Oleidesulfovibrio alaskensis, UniProt Q312S0)
Test: X-ray crystal structure ([…] Å), open conformation; no significant DSF shift at […]
Design: gene dctP
Settings: not given
Target sequence in this assay (Q312S0 24-336 limits assumed): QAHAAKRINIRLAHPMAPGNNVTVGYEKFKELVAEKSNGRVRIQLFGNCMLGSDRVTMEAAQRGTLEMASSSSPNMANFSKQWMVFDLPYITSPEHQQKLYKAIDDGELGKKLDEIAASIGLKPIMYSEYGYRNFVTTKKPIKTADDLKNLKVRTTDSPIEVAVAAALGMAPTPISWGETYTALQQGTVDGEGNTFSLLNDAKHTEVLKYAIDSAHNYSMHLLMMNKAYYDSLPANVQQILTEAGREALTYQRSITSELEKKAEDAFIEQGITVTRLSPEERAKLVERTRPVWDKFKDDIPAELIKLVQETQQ

Row | Structure (SMILES) | X-ray crystal structure (1.89 Å), open conformation; no significant DSF shift at
1 | O=S(=O)(O)CCN1CCN(CCO)CC1 [HEPES, 4-(2-hydroxyethyl)-1-piperazineethanesulfonic acid] | we were able to confidently model HEPES and MES buffer constituents from the crystallisation conditions into the densities

Target: T1, OaIseP (isethionate-specific TRAP substrate-binding protein IseP)
Test: not given
Design: gene dctP; without the native signal peptide; N-terminal His-tag removed with HRV 3C protease; DSF thermal shift with SYPRO Orange, PM4A Biolog compound screen, change of derivative melting temperature
Settings: PM4A Biolog screen, compound concentration not disclosed; binder
Target sequence in this assay (Q312S0 24-336): as the sequence (Q312S0 24-336 limits assumed) above

Row | Structure (SMILES) | ΔTmD (°C)
2 | NC(=O)CCCCC1CCSS1 (racemic) [DL-lipoamide] | 0.60 ± 0.38 °C
3 | N[C@@H](CS)C(=O)NCC(=O)O [Cys-Gly] | 1.14 ± 0.17 °C
4 | N[C@H](CS)C(=O)O [D-cysteine] | 1.14 ± 0.17 °C
5 | O=P(O)(O)O[C@H]1O[C@H](CO)[C@@H](O)[C@H](O)[C@H]1O [D-glucose-1-phosphate] | 0.92 ± 0.26 °C
6 | O=C[C@H](O)[C@@H](O)[C@H](O)[C@H](O)COP(=O)(O)O [D-glucose-6-phosphate] | -0.85 ± 0.37 °C
7 | O=P(O)(O)OC1O[C@H](CO)[C@@H](O)[C@H](O)[C@@H]1O (stereo partly drawn) [D-mannose-1-phosphate] | 0.69 ± 0.31 °C
8 | O=P(O)(O)OC[C@H]1OC(O)[C@@H](O)[C@@H](O)[C@@H]1O (stereo partly drawn) [D-mannose-6-phosphate] | -0.09 ± 0.47 °C
9 | CSCC[C@@H](N)C(=O)O [D-methionine] | -0.62 ± 0.38 °C
10 | CSCC[C@H](NC(=O)CN)C(=O)O [Gly-Met] | -0.01 ± 0.18 °C
11 | N[C@@H](CS(=O)(=O)O)C(=O)O [L-cysteic acid] | 0.11 ± 0.28 °C
12 | N[C@@H](CS(=O)O)C(=O)O [L-cysteine sulfinate] | 0.53 ± 0.00 °C
13 | N[C@@H](CS)C(=O)O [L-cysteine] | -0.68 ± 0.11 °C
14 | N[C@@H](CSCSC[C@H](N)C(=O)O)C(=O)O [L-djenkolic acid] | -0.32 ± 0.28 °C
15 | CS(=O)(=O)CC[C@H](N)C(=O)O [L-methionine sulfone] | 0.44 ± 0.13 °C
16 | C[S+]([O-])CC[C@H](N)C(=O)O (stereo partly drawn) [L-methionine sulfoxide] | 0.29 ± 0.11 °C
17 | CSCC[C@H](N)C(=O)O [L-methionine] | -0.92 ± 0.37 °C
18 | CC(=O)N[C@@H](CS)C(=O)O [N-acetyl-L-cysteine] | -0.64 ± 0.24 °C
19 | N[C@H](COP(=O)(O)O)C(=O)O [O-phospho-D-serine] | 0.05 ± 0.42 °C
20 | N[C@H](Cc1ccc(OP(=O)(O)O)cc1)C(=O)O [O-phospho-D-tyrosine] | 0.87 ± 0.11 °C

Row | Structure (SMILES) | ΔTmD (°C)
21 | C[C@@H](OP(=O)(O)O)[C@H](N)C(=O)O [O-phospho-L-threonine] | -0.62 ± 0.28 °C
22 | N[C@@H](Cc1ccc(OP(=O)(O)O)cc1)C(=O)O [O-phospho-L-tyrosine] | -0.73 ± 0.33 °C
23 | CSC[C@H](N)C(=O)O [S-methyl-L-cysteine] | -0.41 ± 0.48 °C
24 | O=P(O)(O)OC(CO)CO [b-glycerol phosphate] | -0.30 ± 0.29 °C
25 | CCCCS(=O)(=O)O [butane sulfonate] | 0.41 ± 0.46 °C
26 | NC(=O)OP(=O)(O)O [carbamoyl phosphate] | -0.49 ± 0.28 °C
27 | N[C@@H](CCSC[C@H](N)C(=O)O)C(=O)O [cystathionine] | 0.61 ± 0.21 °C
28 | NCCS [cysteamine] | 0.35 ± 0.00 °C
29 | N[C@@H](CCC(=O)N[C@@H](CS)C(=O)NCC(=O)O)C(=O)O [glutathione] | -0.67 ± 0.37 °C
30 | NCCS(=O)O [hypotaurine] | -0.68 ± 0.46 °C
31 | O=P(O)(O)O[C@H]1[C@H](OP(=O)(O)O)[C@@H](OP(=O)(O)O)[C@H](OP(=O)(O)O)[C@@H](OP(=O)(O)O)[C@H]1OP(=O)(O)O [inositol hexaphosphate] | 0.46 ± 0.33 °C
32 | O=S(=O)(O)CCO [isethionate, 2-hydroxyethane sulfonate] | 6.52 ± 0.18 °C
33 | N[C@@H](CSC[C@H](N)C(=O)O)C(=O)O [lanthionine] | -0.46 ± 0.10 °C
34 | CS(=O)(=O)O [methane sulfonic acid] | 0.23 ± 0.28 °C
35 | CN(CC(=O)O)C(=N)NP(=O)(O)O [phospho-creatine] | 0.41 ± 0.40 °C
36 | O=C(O)COP(=O)(O)O [phospho-glycolic acid] | 0.31 ± 0.21 °C
37 | C=C(OP(=O)(O)O)C(=O)O [phosphoenolpyruvate] | -0.63 ± 0.24 °C
38 | O=S1(=O)CCCC1 [tetramethylene sulfone] | 0.23 ± 0.11 °C
39 | NC(N)=S [thiourea] | -0.73 ± 0.31 °C

Target: T1, OaIseP (isethionate-specific TRAP substrate-binding protein IseP)
Test: biochemical
Design: gene dctP
Settings: not given
Target sequence in this assay (Q312S0 24-336 limits assumed): as above

Row | Structure (SMILES) | Kd
40 | O=S(=O)(O)CCO [isethionate, 2-hydroxyethane sulfonate] | 950 nM

Target: T1, OaIseP (isethionate-specific TRAP substrate-binding protein IseP)
Test: X-ray crystal structure ([…] Å), open conformation; no significant DSF shift at […]
Design: gene dctP
Settings: not given
Remark: another data set of the same source
Target sequence in this assay (Q312S0 24-336 limits assumed): as above

Row | Structure (SMILES) | X-ray crystal structure (1.65 Å), open conformation; no significant DSF shift at
41 | O=S(=O)(O)CCN1CCOCC1 [MES, 2-(N-morpholino)ethanesulfonic acid] | In both HEPES- and MES-bound structures, the sulfonate groups form a salt bridge to Arg177

Reference: paper PMC11668362, “On the function of TRAP substrate-binding proteins: the isethionate-specific binding protein IseP” (Biochemical Journal, 2024)
